Assay results taken from patent US10046001B2, “Compositions and methods for reducing intraocular pressure” (UNIVERSITY OF MIAMI, priority 2013, dated 2018).

Tests used:
[1] = tested on: trabecular meshwork (TM) primary cells; assay: mobility and cell shape changes of primary TM cells exposed to lipids (time-lapse imaging); type: cell-based, human; settings: for mobility and cell shape changes for trabecular meshwork (TM) primary cells due to exposure to lipids: 10 pmoles of lipid; for dynamics of filopodia formation: exposure to lipids vs vehicle
Protocol: FIGS. 2A and 2B show representative images of the effect of lipid on trabecular meshwork primary cells. The time lapsed images of cell at indicated time interval. A. The control TM cells were subjected to vehicle (5% DMSO) in phosphate buffered saline. […] A protrusion of filopodia in a cell is indicated by thick arrow head. At 2 minutes after addition of vehicle to 16 minutes, the protrusion remains unchanged. B. TM cells treated with 10 pmoles of lipid. Most cells have protrusions with only a few cells without them. The filopodia in lipid treated cells are dynamic, they undergo dynamic retraction starting at 1 or 2 minutes after addition of lipid in the serum free media, indicated by arrows. At 16 minutes filopodia are largely retracted.
Modulation of cell motility and shape. Compared to controls (vehicle-10% DMSO only treated) shape of primary TM cells (FIG. 2A), exposure to lipids changed the shape of cells promoting filopodia and motility (FIG. 2B). All these lipids promote contraction of filopodia (FIG. 2B, arrows) and well as expansion. These images were derived from time lapsed video imaging of primary TM cells and summary data from several donor derived cells. The exposure to lipids render the cells more dynamic with respect to filopodia formation and their dynamic expansion-contraction (Summarized in Table 1 (FIG. 11)). The motility and filopodia formation is affected by a variety of intrinsic and extrinsic factors such as age of the donors from where cell have been derived, cell density, composition of the medium, environmental temperature and incubation gas composition. The age of the donor and cell density are the most prominent factors.
TM cell culture experiments: Primary human TM cells were cultured from cadaveric corneo-scleral sections. The cells were isolated through a blunt dissection of the area containing and adjacent to the canal of Schlemm, followed by a 2 hour digestion in DPBS (cat #21-030-CV, Mediatech Inc, Manassas, Va.) suspension of 20% 0.01 μg/μL collagenase-A (cat #LS004194, Worthington, Lakewood N.J.). The blunt dissection and the proteolytic treatment were performed inside a 12 well culture plate (cat #665-180 Greiner Bio-One, Neuburg, Germany). Culture media containing [DMEM 1× (cat #10-017-CM, Mediatech Inc), 10% heat inactivated FBS (cat #35-016-CV, Mediatech), 0.5% 1.7 mM L-Glutamine (cat #G6392, Sigma-Aldrich), 1% Antibiotic-Antimycotic Solution (cat #30-004-CL, Mediatech)] was added after 2 hours to terminate digestion. A sterile microscopy slide (cat #56700-194, VMR) was placed on top of the tissue fragment to ensure bottom-contact and immobility inside the media well. The sections were cultured at 37° C. in 5% CO2 inside a cell culture incubator. Culture was washed with 1× DPBS 7 days later to remove tissue debris; media change occurred every 3-4 days. Thus obtained cells were trypsin-treated (cat #25-050-C1, Mediatech) and accordingly distributed the day before the transfection complexes were created using the ratio of 0.4 μg/uL of respective vector DNA to the transfection agent (Lipofectamine 2000, cat #11668-019, Invitrogen), prepared accordingly to the manufacturer's instructions Following addition to respective wells, the transfection reactions were allowed to take place over a 2.5 hour span, after which they were terminated through the addition of cell culture media. Cell assays and immunohistochemical analysis were performed at or within a 24 hour time mark in order to observe and track the effects of vector expression on morphological changes. Time-lapse microscopy was performed using cells grown on glass bottom chamber slides (cat #154534, Lab-Tek, Thermo Fisher Scientific Inc., Rochester N.Y.) and Zeiss AxioVert 200M, for the duration of 20 hours, with a snapshot every 15 minutes, starting at 24 hours post-transfection. Immunohistochemical analysis was performed on cells fixed with 4% PFA (cat #19943, USB Corp, Cleveland, Ohio) at time intervals of 0, 24, and 29 hours post-transfection. […]

[2] = tested on: primary TM cells embedded in collagen gel; assay: collagen gel embedded expansion and/or contraction assay; type: cell-based, human; settings: 10 pmole lipid, collagen column length at 24 hours
Protocol: About 10,000 primary TM cells were placed in a capillary tube with rat collagen without (control) or after treatment with 10 pmole of indicated lipid. The change in collagen column length was measured at the end of 24 hours. Mean and standard deviation from three independent experiments are presented. As shown by yellow/gray zones, the expansions were categorized into four zones (2, 3 and 4 are identified), 1=[…]; 2=1.0 to 1.4 mm; 3=>1.4 mm but <2.0 mm; 4=2.0 and >2.0 mm.
Properties of cell ensembles in embedded matrix and assembled layer of cells on filter membranes. Gel embedded primary TM cells in collagen matrix in capillary tubes were prepared following established protocols (Ilagan, R. et al. Biotechniques. 2010; 48: 153-5), and their ability within the first 24 hours for expansion or contraction of gels (control) or the cells which were subjected to treatment with lipids for 1 hour in serum free medium prior to gel embedding were determined. Lipids that modulate cell expansion in matrix embedded assay systems (FIG. 3) were found. […] The extent of expansion was divided into four zones 1, 2, 3, and 4 (FIG. 3). The higher the number, the greater is the expansion.
Collagen gel expansion and/or contraction assay: Hydro-gel solution was prepared using 10× MEM (cat #11430, Invitrogen), Sodium Bicarbonate (cat #55761 Sigma-Aldrich), L-Glutamine (Sigma-Aldrich), HEPES (cat #15630, Invitrogen). The following solution was aliquoted in separate tubes for each transfection type. Transfection complexes were prepared in individual tubes containing a mixture of the transfection agent (Lipofectamine 2000, Invitrogen) and desired DNA vectors in a ratio of 0.4 ug/uL, following the manufacturer's preparation guidelines. Trabecular meshwork cells were obtained from a confluent layer of trypsin-treated 25 cm^2 cell culture flask (cat #353109, Becton Dickinson, Franklin Lakes, N.J.) sedimented for 5 minutes at 800 RPM. Cell pellet was then re-suspended in serum free DMEM 1×, (Mediatech) media, thoroughly mixed and finally, equally aliquoted into each respective transfection-complex containing vessel. The reaction was allowed to occur for 45 minutes, after which it was terminated through addition of cell culture media and rat tail collagen (cat #354249, BD, San Jose, Calif.) to initiate gel polymerization. The suspension was gently mixed by aspiration and aspirated into 1 mL single use needle syringe and injected into a borosilicate glass capillary (O.D −1.0 mm, IN.D −0.75 mm) (cat #TW100-6, WPI) to approximately half of its volume. A digital picture snapshot was taken of all capillaries prepared against a blank background with a millimeter scale, repeated at 24 and 48 hours. The hydro-gel containing capillaries were incubated inside a moisture chamber to prevent dehydration in a cell line incubator at 37° C. and 5% CO2. Photographs obtained were analyzed using ImageJ (v.1.43u) measuring between chosen points on the opposite ends of the gel. Amassed length data was statistically analyzed using Microsoft Excel (XP).

| Structure (SMILES) | mobility and cell shape changes for trabecular meshwork (TM) primary cells due to exposure to lipids [1] | gel expansion/contraction of cells in artificial embedment [2] | dynamics of filopodia formation [1] |
| --- | --- | --- | --- |
| CCCCCCCCCCCCCC[C@@H](O)[C@@H](N)COP(=O)(O)O [C17 Sphinganine-1-phosphate] | showed an effect | showed an effect | – |
| CCCCCCCC/C=C\CCCCCCCC(=O)N[C@@H](CO)[C@H](O)CCCCCCCCCCCCCCC [Cer(d18:0/18:1(9Z))] | showed an effect | showed an effect | – |
| CCCCCCCC/C=C\CCCCCCCCCCCCCCCC(=O)N[C@@H](CO)[C@H](O)/C=C/CCCCCCCCCCCCC [Cer(d18:1/26:1(17Z))] | showed an effect | showed an effect | – |
| CCCC/C=C\CCCCCCCC(=O)O[C@H](COC(=O)CCCCCCCCCCC)COP(=O)([O-])OCC[N+](C)(C)C [PC(12:0/14:1(9Z))] | lack of any effect | lack of any effect | exception |
| CCCCCCCCCCCCC(=O)OC[C@H](COP(=O)([O-])OCC[N+](C)(C)C)OC(=O)CCCCCCCCCCCC [PC(13:0/13:0), 1,2-ditridecanoyl-sn-glycero-3-phosphocholine, reference compound] | lack of any effect | lack of any effect | exception |
| CCCCCCCCCCCCCCCCCC(=O)OC[C@H](COP(=O)(O)OCCN)OC(=O)CCCCCCCCCCCCCCCCC [PE(18:0/18:0)] | showed an effect | showed an effect | – |
| CCCC/C=C\C/C=C\CCCCCCCC(=O)O[C@H](COC(=O)CCCCCCCCCCC)COP(=O)(O)OC1C(O)C(O)C(O)[C@@H](O)C1O (some centres unmarked) [PI(12:0/17:2)9Z,12Z))] | showed an effect | showed an effect | – |
| CCCCC/C=C\C/C=C\C/C=C\C/C=C\CCCC(=O)O[C@H](COC(=O)CCCCCCCCCCCCCCCCC)COP(=O)(O)OC1[C@H](O)[C@H](O)C(O)[C@H](O)[C@H]1O (some centres unmarked) [PI(18:0/20:4)5Z,8Z,11Z,14Z))] | showed an effect | showed an effect | – |
| CCCCCCCCCCCCCC(=O)OC[C@@H](O)COP(=O)(O)OC[C@H](N)C(=O)O [PS(14:0/0:0)] | showed an effect | showed an effect | – |
| CCCCCCCCCCCCCCCCCC(=O)OC[C@@H](O)COP(=O)(O)OC[C@H](N)C(=O)O [PS(18:0/0:0)] | showed an effect | showed an effect | – |
| CCCCCCCCCCC/C=C/[C@@H](O)[C@H](COP(=O)([O-])OCC[N+](C)(C)C)NC(=O)CCCCCCCCCCCCCCCCCCCCCCCC [SM(d16:1/25:0)] | showed an effect | showed an effect | – |
| CCCCCCCCCCCCCCC[C@@H](O)[C@@H](N)CO [Sphinganine] | showed an effect | showed an effect | – |
